PubChem BioAssay (NCI)
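Protocol summary: plate cells (96-well), add compound at 5 concentrations, incubate 48 h, interpolate endpoints linearly. TGI denotes the concentration required for complete inhibition of growth.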

Tests used:
Test in all cases: NCI tumour cell line growth inhibition, 48 h
IGROV1 ovarian = tested on: IGROV1 ovarian
SF-539 CNS = tested on: SF-539 CNS
OVCAR-4 ovarian = tested on: OVCAR-4 ovarian
CAKI-1 renal = tested on: CAKI-1 renal
A498 renal = tested on: A498 renal
HCC-2998 colon = tested on: HCC-2998 colon
UACC-257 melanoma = tested on: UACC-257 melanoma
NCI-H460 lung = tested on: NCI-H460 lung
SNB-19 CNS = tested on: SNB-19 CNS
HT29 colon = tested on: HT29 colon
SF-268 CNS = tested on: SF-268 CNS
SNB-75 CNS = tested on: SNB-75 CNS
786-0 renal = tested on: 786-0 renal
MALME-3M melanoma = tested on: MALME-3M melanoma
K-562 leukemia = tested on: K-562 leukemia
COLO 205 colon = tested on: COLO 205 colon
OVCAR-8 ovarian = tested on: OVCAR-8 ovarian
MOLT-4 leukemia = tested on: MOLT-4 leukemia
EKVX NSCLC = tested on: EKVX NSCLC
UO-31 renal = tested on: UO-31 renal
NCI-H522 lung = tested on: NCI-H522 lung
SK-OV-3 ovarian = tested on: SK-OV-3 ovarian
HCT-15 colon = tested on: HCT-15 colon
HOP-18 NSCLC = tested on: HOP-18 NSCLC
KM20L2 colon = tested on: KM20L2 colon
TK-10 renal = tested on: TK-10 renal
SN12C renal = tested on: SN12C renal
M14 melanoma = tested on: M14 melanoma
UACC-62 melanoma = tested on: UACC-62 melanoma
HOP-92 NSCLC = tested on: HOP-92 NSCLC
SNB-78 CNS = tested on: SNB-78 CNS
U251 CNS = tested on: U251 CNS
KM12 colon = tested on: KM12 colon
OVCAR-3 ovarian = tested on: OVCAR-3 ovarian
CCRF-CEM leukemia = tested on: CCRF-CEM leukemia
NCI-H23 lung = tested on: NCI-H23 lung
SK-MEL-5 melanoma = tested on: SK-MEL-5 melanoma
LXFL 529 NSCLC = tested on: LXFL 529 NSCLC
M19-MEL melanoma = tested on: M19-MEL melanoma
LOX IMVI melanoma = tested on: LOX IMVI melanoma
DMS 114 small cell lung = tested on: DMS 114 small cell lung
SK-MEL-2 melanoma = tested on: SK-MEL-2 melanoma
ACHN renal = tested on: ACHN renal
HCT-116 colon = tested on: HCT-116 colon
HL-60(TB) leukemia = tested on: HL-60(TB) leukemia
HOP-62 NSCLC = tested on: HOP-62 NSCLC
A549 NSCLC = tested on: A549 NSCLC
SK-MEL-28 melanoma = tested on: SK-MEL-28 melanoma
OVCAR-5 ovarian = tested on: OVCAR-5 ovarian
RXF 393 renal = tested on: RXF 393 renal
SW-620 colon = tested on: SW-620 colon
DMS 273 small cell lung = tested on: DMS 273 small cell lung
NCI-H226 lung = tested on: NCI-H226 lung
SF-295 CNS = tested on: SF-295 CNS
RPMI-8226 leukemia = tested on: RPMI-8226 leukemia
XF 498 CNS = tested on: XF 498 CNS
DLD-1 colon = tested on: DLD-1 colon

**Q.** For `COc1cc(CNc2cnc3ccc(N)cc3n2)cc(OC)c1OC`, which TGI (IGROV1 ovarian) is on record?
**A.** > 100 µM

**Q.** What about the TGI (SF-539 CNS) of the same compound?
**A.** > 100 µM

**Q.** And the TGI (OVCAR-4 ovarian)?
**A.** > 100 µM

**Q.** What about the TGI (CAKI-1 renal) of the same compound?
**A.** > 100 µM

**Q.** What about the TGI (A498 renal) of the same compound?
**A.** > 100 µM

**Q.** And the TGI (HCC-2998 colon)?
**A.** > 100 µM

**Q.** What about the TGI (UACC-257 melanoma) of the same compound?
**A.** > 100 µM

**Q.** And the TGI (NCI-H460 lung)?
**A.** > 100 µM

**Q.** What about the TGI (SNB-19 CNS) of the same compound?
**A.** > 100 µM

**Q.** And the TGI (HT29 colon)?
**A.** > 100 µM

**Q.** What about the TGI (SF-268 CNS) of the same compound?
**A.** > 100 µM

**Q.** What about the TGI (SNB-75 CNS) of the same compound?
**A.** > 100 µM

**Q.** And the TGI (786-0 renal)?
**A.** > 100 µM

**Q.** And the TGI (MALME-3M melanoma)?
**A.** > 100 µM

**Q.** What about the TGI (K-562 leukemia) of the same compound?
**A.** > 100 µM

**Q.** And the TGI (COLO 205 colon)?
**A.** > 100 µM

**Q.** What about the TGI (OVCAR-8 ovarian) of the same compound?
**A.** > 100 µM

**Q.** What about the TGI (MOLT-4 leukemia) of the same compound?
**A.** > 100 µM

**Q.** And the TGI (EKVX NSCLC)?
**A.** > 100 µM

**Q.** And the TGI (UO-31 renal)?
**A.** > 100 µM

**Q.** And the TGI (NCI-H522 lung)?
**A.** > 100 µM

**Q.** And the TGI (SK-OV-3 ovarian)?
**A.** > 100 µM

**Q.** What about the TGI (HCT-15 colon) of the same compound?
**A.** > 100 µM

**Q.** What about the TGI (HOP-18 NSCLC) of the same compound?
**A.** > 100 µM

**Q.** What about the TGI (KM20L2 colon) of the same compound?
**A.** > 100 µM

**Q.** And the TGI (TK-10 renal)?
**A.** > 100 µM

**Q.** What about the TGI (SN12C renal) of the same compound?
**A.** > 100 µM

**Q.** And the TGI (M14 melanoma)?
**A.** > 100 µM

**Q.** What about the TGI (UACC-62 melanoma) of the same compound?
**A.** > 100 µM

**Q.** What about the TGI (HOP-92 NSCLC) of the same compound?
**A.** > 100 µM

**Q.** And the TGI (SNB-78 CNS)?
**A.** > 100 µM

**Q.** What about the TGI (U251 CNS) of the same compound?
**A.** > 100 µM

**Q.** And the TGI (KM12 colon)?
**A.** > 100 µM

**Q.** And the TGI (OVCAR-3 ovarian)?
**A.** > 100 µM

**Q.** And the TGI (CCRF-CEM leukemia)?
**A.** > 100 µM

**Q.** And the TGI (NCI-H23 lung)?
**A.** > 100 µM

**Q.** What about the TGI (SK-MEL-5 melanoma) of the same compound?
**A.** > 100 µM

**Q.** And the TGI (LXFL 529 NSCLC)?
**A.** > 100 µM

**Q.** And the TGI (M19-MEL melanoma)?
**A.** > 100 µM

**Q.** What about the TGI (LOX IMVI melanoma) of the same compound?
**A.** > 100 µM

**Q.** What about the TGI (DMS 114 small cell lung) of the same compound?
**A.** > 100 µM

**Q.** What about the TGI (SK-MEL-2 melanoma) of the same compound?
**A.** > 100 µM

**Q.** And the TGI (ACHN renal)?
**A.** > 100 µM

**Q.** And the TGI (HCT-116 colon)?
**A.** > 100 µM

**Q.** What about the TGI (HL-60(TB) leukemia) of the same compound?
**A.** > 100 µM

**Q.** And the TGI (HOP-62 NSCLC)?
**A.** > 100 µM

**Q.** And the TGI (A549 NSCLC)?
**A.** > 100 µM

**Q.** What about the TGI (SK-MEL-28 melanoma) of the same compound?
**A.** > 100 µM

**Q.** And the TGI (OVCAR-5 ovarian)?
**A.** > 100 µM

**Q.** What about the TGI (RXF 393 renal) of the same compound?
**A.** > 100 µM

**Q.** What about the TGI (SW-620 colon) of the same compound?
**A.** > 100 µM

**Q.** And the TGI (DMS 273 small cell lung)?
**A.** > 100 µM

**Q.** What about the TGI (NCI-H226 lung) of the same compound?
**A.** > 100 µM

**Q.** What about the TGI (SF-295 CNS) of the same compound?
**A.** > 100 µM

**Q.** And the TGI (RPMI-8226 leukemia)?
**A.** > 100 µM

**Q.** For `CN(/N=C\c1ccnc2ccccc12)c1ccccc1`, which TGI (IGROV1 ovarian) is on record?
**A.** > 100 µM

**Q.** What about the TGI (SF-539 CNS) of the same compound?
**A.** 71.6 µM

**Q.** And the TGI (OVCAR-4 ovarian)?
**A.** 89.4 µM

**Q.** What about the TGI (CAKI-1 renal) of the same compound?
**A.** 91.7 µM

**Q.** And the TGI (A498 renal)?
**A.** 54.6 µM

**Q.** What about the TGI (UACC-257 melanoma) of the same compound?
**A.** 42.6 µM

**Q.** And the TGI (NCI-H460 lung)?
**A.** 55.5 µM

**Q.** And the TGI (SNB-19 CNS)?
**A.** > 100 µM

**Q.** And the TGI (HT29 colon)?
**A.** 35.9 µM

**Q.** And the TGI (SF-268 CNS)?
**A.** > 100 µM

**Q.** And the TGI (SNB-75 CNS)?
**A.** 94.9 µM

**Q.** What about the TGI (786-0 renal) of the same compound?
**A.** 37.7 µM

**Q.** What about the TGI (MALME-3M melanoma) of the same compound?
**A.** 52.8 µM

**Q.** And the TGI (K-562 leukemia)?
**A.** 51.4 µM

**Q.** And the TGI (COLO 205 colon)?
**A.** 39.8 µM

**Q.** And the TGI (OVCAR-8 ovarian)?
**A.** > 100 µM

**Q.** And the TGI (MOLT-4 leukemia)?
**A.** > 100 µM

**Q.** And the TGI (EKVX NSCLC)?
**A.** 91.2 µM

**Q.** What about the TGI (UO-31 renal) of the same compound?
**A.** 54.4 µM

**Q.** And the TGI (NCI-H522 lung)?
**A.** 41.9 µM

**Q.** And the TGI (SK-OV-3 ovarian)?
**A.** 66 µM

**Q.** And the TGI (HCT-15 colon)?
**A.** 39.5 µM

**Q.** What about the TGI (HOP-18 NSCLC) of the same compound?
**A.** > 100 µM

**Q.** And the TGI (TK-10 renal)?
**A.** 98.7 µM

**Q.** And the TGI (SN12C renal)?
**A.** > 100 µM

**Q.** What about the TGI (M14 melanoma) of the same compound?
**A.** 38.2 µM

**Q.** And the TGI (UACC-62 melanoma)?
**A.** 37.2 µM

**Q.** What about the TGI (HOP-92 NSCLC) of the same compound?
**A.** 50 µM

**Q.** And the TGI (SNB-78 CNS)?
**A.** > 100 µM

**Q.** What about the TGI (U251 CNS) of the same compound?
**A.** 84.9 µM

**Q.** And the TGI (KM12 colon)?
**A.** 37.4 µM

**Q.** What about the TGI (OVCAR-3 ovarian) of the same compound?
**A.** 44.2 µM

**Q.** And the TGI (CCRF-CEM leukemia)?
**A.** 45.1 µM

**Q.** And the TGI (NCI-H23 lung)?
**A.** 48.6 µM

**Q.** And the TGI (SK-MEL-5 melanoma)?
**A.** 31.2 µM

**Q.** What about the TGI (LXFL 529 NSCLC) of the same compound?
**A.** 79.7 µM

**Q.** And the TGI (M19-MEL melanoma)?
**A.** 54 µM

**Q.** What about the TGI (XF 498 CNS) of the same compound?
**A.** 47.5 µM

**Q.** What about the TGI (LOX IMVI melanoma) of the same compound?
**A.** 32.3 µM

**Q.** What about the TGI (DMS 114 small cell lung) of the same compound?
**A.** 48.7 µM

**Q.** What about the TGI (SK-MEL-2 melanoma) of the same compound?
**A.** 38.5 µM

**Q.** And the TGI (ACHN renal)?
**A.** 95.8 µM

**Q.** What about the TGI (HCT-116 colon) of the same compound?
**A.** 36 µM

**Q.** What about the TGI (HL-60(TB) leukemia) of the same compound?
**A.** 39.2 µM

**Q.** And the TGI (HOP-62 NSCLC)?
**A.** 81.6 µM

**Q.** What about the TGI (A549 NSCLC) of the same compound?
**A.** 53.1 µM

**Q.** What about the TGI (SK-MEL-28 melanoma) of the same compound?
**A.** 82.7 µM

**Q.** And the TGI (DLD-1 colon)?
**A.** 64.6 µM

**Q.** And the TGI (OVCAR-5 ovarian)?
**A.** 45.6 µM

**Q.** And the TGI (RXF 393 renal)?
**A.** 77.3 µM

**Q.** What about the TGI (SW-620 colon) of the same compound?
**A.** 51.4 µM

**Q.** What about the TGI (DMS 273 small cell lung) of the same compound?
**A.** 39.7 µM

**Q.** And the TGI (SF-295 CNS)?
**A.** 71.5 µM

**Q.** And the TGI (RPMI-8226 leukemia)?
**A.** > 100 µM
